Experiments:
Assay in all cases: in-line probing
[1] = test system: 85 pnuC (RNA, riboswitch) GGAGGAGAAGCGGUUCAAAUCGAAAAUCUAUAGAGCGUUGCGUCCGAAAGUCUAAACAGACACGGCUCUUUAAAAACAAAAGGAGAAG; settings: 20 mM Mg2+, 100 mM K+; 50 mM Tris-HCl pH 8.3, ~23 °C; tested at 0.1 and 1 mM
[2] = test system: 65 pnuC (RNA, riboswitch) GGAAAAUCUAUAGAGCGUUGCGUCCGAAAGUCUAAACAGACACGGCUCUUUAAAAACAAAAGGAGAAG; settings: 20 mM Mg2+, 100 mM K+, 50 mM Tris-HCl pH 8.3, ~23 °C
[3] = test system: M1 (G35U) (RNA, riboswitch) GGAAAAUCUAUAGAGCUUUGCGUCCGAAAGUCUAAACAGACACGGCUCUUUAAAAACAAAAGGAGAAG; settings: 20 mM Mg2+, 100 mM K+; 50 mM Tris-HCl pH 8.3, ~23 °C; tested at 1 mM
[4] = test system: M2 (A60U) (RNA, riboswitch) GGAAAAUCUAUAGAGCGUUGCGUCCGAAAGUCUAAACAGACUCGGCUCUUUAAAAACAAAAGGAGAAG; settings: 20 mM Mg2+, 100 mM K+; 50 mM Tris-HCl pH 8.3, ~23 °C; tested at 1 mM

Cc1cc2nc3c(=O)[nH]c(=O)nc-3n(C[C@H](O)[C@H](O)[C@H](O)COP(=O)(O)O)c2cc1C
binding [1]: no

NC(=O)c1ccc[n+]([C@@H]2O[C@H](COP(=O)([O-])OP(=O)(O)OC[C@H]3O[C@@H](n4cnc5c(N)ncnc54)[C@H](O)[C@@H]3O)[C@@H](O)[C@H]2O)c1
KD ([2]; apparent): ~ 100 µM

Cc1ncc(C[n+]2csc(CCOP(=O)(O)OP(=O)(O)O)c2C)c(N)n1
binding [1]: no

O=C(O)c1cccnc1
binding ([2]; tested at 0.1 and 1 mM): no

NC(=O)c1ccc[n+]([C@@H]2O[C@H](COP(=O)(O)O)[C@@H](O)[C@H]2O)c1
binding [3]: no | binding [1]: yes | binding [4]: no
